The target of one series is T1, Human albumin (Homo sapiens, UniProt P02768).
T1 construct: purchased Sigma-Aldrich A1653
Put plainly: Fluorescence polarization albumin binding assay, purified human albumin. As to the method:
Forty-five microlitre of the dilutions were added to 15 μl of fluorescent peptide (100 nM) in black 96-well half area microtitre plates. […] The final concentration of fluorescent peptide was 25 nM in all wells. Fluorescence anisotropy was measured with an Infinite M200Pro plate reader (Tecan) using an excitation filter at 485 nm and an emission filter at 535 nm. Dissociation constant (KD) were determined by nonlinear regression analysis of anisotropy versus the total concentration of proteins [P]T using the following equation: […]
A is the experimental fluorescence anisotropy. Af and Ab are the fluorescence anisotropy for the free and the fully bound fluorescent ligand, respectively. [L]T and [P]T represent the total fluorescent ligand and protein concentration, respectively. KD is the dissociation constant for the binding equilibrium. Values were calculated with Prism 5 (GraphPad software).
(In fluorescence polarisation assays a small probe gives low polarisation when free and higher when bound to something large.)

Series [1] has as its target insulin detemir (Homo sapiens) (UniProt P01308). The following applies: cited from earlier work.
For another series, the system named is albumin. The following applies: cited from earlier work.
For series [2] the following is noted: applied intravenously; cited from earlier work.

Chain of insulin detemir (Homo sapiens) (F8WCM5 25-53, chain 1 of 2): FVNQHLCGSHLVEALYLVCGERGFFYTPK
Chain of insulin detemir (Homo sapiens) (P01308 90-110, chain 2 of 2): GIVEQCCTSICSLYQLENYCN

For (F)-EYEKpalmEYE [tag], at Human albumin, the “improvement of Kd compared to the starting peptide-palmitoyl tag” value is reported as 27 fold.

As for albumin (from UniProt P02768), in series [1], the Kd – broadly, the constant that tells how readily two partners part at equilibrium – is 4.2 µM.

For insulin degludec, in the series on albumin, the “higher affinity for albumin than insulin detemir” value is 2.4 fold.

Turning to oxytocin, the half-life (usually the time needed for the level to fall by half in the phase considered) in series [2] is 10 to 15 min.

The values are drawn from PMC5520048 (Nature Communications, 2017).
